How the values were obtained:
Assay in all cases: relative viability (nuclei count vs DMSO), 5 days (fraction); higher = more cells survive
RU-SKI 43 + Decitabine = compound: CC[C@@H](C)CNCC(=O)N1CCC2=C([C@@H]1COC3=CC=CC(=C3)C)C=CS2 [RU-SKI 43] + Nc1ncn([C@H]2C[C@H](O)[C@@H](CO)O2)c(=O)n1 [Decitabine] (partner 2 µM)
In short: (§1)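 Lung cancer cell lines, seeded in 1536-well plates, were treated the following day by pin tool with a single drug or with five library-drug doses (not always all listed) in √10 steps on top of a fixed anchor-drug dose. Cells were fixed and nuclei stained in one step after 5 days, and nuclei were counted. Relative viability is the nuclei count for treated wells divided by that for vehicle wells, reported as medians of duplicate plates.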

RU-SKI 43 + AZD7762 = compound: CC[C@@H](C)CNCC(=O)N1CCC2=C([C@@H]1COC3=CC=CC(=C3)C)C=CS2 [RU-SKI 43] + NC(=O)Nc1cc(-c2cccc(F)c2)sc1C(=O)N[C@H]1CCCNC1 [AZD7762] (partner 0.2 µM)
In short: as §1

MK-8033 + Trametinib = compound: Cn1cc(-c2cnc3ccc4ccc(CS(=O)(=O)NCc5ccccn5)cc4c(=O)c3c2)cn1 [MK-8033] + CC(=O)Nc1cccc(-n2c(=O)n(C3CC3)c(=O)c3c(Nc4ccc(I)cc4F)n(C)c(=O)c(C)c32)c1 [Trametinib] (partner 0.02 µM)
In short: as §1

RU-SKI 43 + Pemetrexed = compound: CC[C@@H](C)CNCC(=O)N1CCC2=C([C@@H]1COC3=CC=CC(=C3)C)C=CS2 [RU-SKI 43] + Nc1nc2[nH]cc(CCc3ccc(C(=O)N[C@@H](CCC(=O)O)C(=O)O)cc3)c2c(=O)[nH]1 [Pemetrexed] (partner 0.2 µM)
In short: as §1

Cell Line	relative viability (RU-SKI 43 + Decitabine; first compound 0.1 µM)	relative viability (RU-SKI 43 + Decitabine; first compound 0.3162 µM)	relative viability (RU-SKI 43 + Decitabine; first compound 1 µM)	relative viability (RU-SKI 43 + Decitabine; first compound 3.162 µM)	relative viability (RU-SKI 43 + Decitabine; first compound 10 µM)	relative viability (RU-SKI 43 + AZD7762; first compound 0.1 µM)	relative viability (RU-SKI 43 + AZD7762; first compound 0.3162 µM)	relative viability (RU-SKI 43 + AZD7762; first compound 1 µM)	relative viability (RU-SKI 43 + AZD7762; first compound 3.162 µM)	relative viability (RU-SKI 43 + AZD7762; first compound 10 µM)	relative viability (MK-8033 + Trametinib; first compound 0.02 µM)	relative viability (MK-8033 + Trametinib; first compound 0.06325 µM)	relative viability (MK-8033 + Trametinib; first compound 0.2 µM)	relative viability (MK-8033 + Trametinib; first compound 0.6325 µM)	relative viability (MK-8033 + Trametinib; first compound 2 µM)	relative viability (RU-SKI 43 + Pemetrexed; first compound 0.1 µM)	relative viability (RU-SKI 43 + Pemetrexed; first compound 0.3162 µM)	relative viability (RU-SKI 43 + Pemetrexed; first compound 1 µM)	relative viability (RU-SKI 43 + Pemetrexed; first compound 3.162 µM)	relative viability (RU-SKI 43 + Pemetrexed; first compound 10 µM)
LXF-289	0.373	0.357	0.384	0.41	0.388	1.13	1.11	1.14	1.09	1.03	0.702	0.616	0.685	0.711	0.659	0.924	0.862	0.939	0.902	0.999
NCI-H23	0.309	0.319	0.326	0.291	0.335	0.197	0.229	0.202	0.216	0.154	0.331	0.349	0.331	–	0.381	0.787	0.687	0.834	0.715	0.705
NCI-H322M	0.631	0.673	0.717	0.689	0.65	0.57	0.561	0.474	0.624	0.465	0.527	0.565	0.488	0.585	0.476	0.642	0.68	0.662	0.673	0.572
NCI-H358	0.199	0.184	0.248	0.217	0.19	0.475	0.585	0.574	0.591	0.484	0.141	0.124	0.11	0.146	0.131	0.169	0.189	0.17	0.176	0.176
NCI-H441	0.212	0.238	0.228	0.229	0.223	0.795	1.55	1.23	1.22	1.17	0.376	0.343	0.391	0.487	0.437	0.28	0.273	0.277	0.255	0.219
NCI-H460	0.446	0.698	0.547	0.475	0.379	0.533	0.756	0.787	0.519	0.638	0.116	0.0888	0.0918	0.155	0.0855	0.0581	0.0578	0.0612	0.0618	0.0606
NCI-H522	0.682	0.568	0.669	0.768	0.677	0.918	0.984	1.04	0.859	0.853	0.72	0.701	0.669	0.657	0.766	1.26	0.966	1.18	1.02	1.16
NCI-H596	1.08	1.04	0.91	1.16	1.07	1.22	1.17	1.12	1.29	1.05	0.683	0.916	0.733	0.837	0.877	0.537	0.473	0.552	0.507	0.508
NCI-H647	0.383	0.404	0.393	0.43	0.353	0.358	0.553	0.583	0.44	0.499	0.449	0.469	0.412	0.456	0.415	0.169	0.178	0.199	0.169	0.169
NCI-H650	0.281	0.335	–	0.311	0.312	0.944	1.09	–	1.04	1.06	1.06	1.02	0.973	0.939	0.884	0.907	0.962	–	0.879	0.932
NCI-H838	0.416	0.489	0.469	0.429	0.444	0.933	1.03	1	0.987	0.876	0.488	0.506	0.534	0.525	0.51	0.256	0.248	0.251	0.251	0.249
NCI-H1355	0.351	0.378	0.348	0.348	0.354	0.711	0.724	0.801	0.697	0.771	0.415	0.363	0.393	0.447	0.419	1.02	1.09	1.09	1.14	1.05
NCI-H1395	0.661	0.858	0.776	0.714	0.696	0.382	0.394	0.387	0.393	0.394	0.911	0.983	1.01	1.05	1.03	0.992	0.805	1.2	0.855	0.967
NCI-H1437	0.591	0.582	0.601	0.56	0.557	1.16	1.28	1.16	1.12	1.08	0.483	0.583	0.46	0.607	0.449	0.318	0.352	0.328	0.306	0.295
NCI-H1648	0.452	0.535	0.466	0.554	0.444	0.502	0.626	0.656	0.694	0.628	0.499	–	0.408	0.499	0.432	0.682	0.861	0.531	0.659	0.558
